In this assay the test system is 8×TBD luciferase reporter (YAP) in HEK293T cells. Nature of the assay: YAP Reporter Assay (8×TBD firefly luciferase reporter). Format: cell-based. To be noted: Homo sapiens, HEK-293T; HEK293T cells stably transfected with 8×TBD luciferase reporter and pRLTK; 24-hr incubation; firefly luciferase activity; read-out: Firefly Luciferase IC50. The gist of the method: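 Stably transfected HEK293T cells (8×TBD firefly luciferase plus TK-renilla) were dosed with 10-point 1:3 dilutions from 3 μM final, quadruplicates, for 24 h at 37 °C. Dual-Glo read firefly and renilla luminescence; IC50 and maximal inhibition reported separately for each.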
The IC50 is the concentration that gives 50% inhibition. In the case of `C[C@@H](NC(=O)c1ccc2c(Oc3ccc(C(F)(F)F)cc3)cccc2c1)c1cccc(N(C)C)n1` [Compound 77, (R)—N-(1-(6-(dimethylamino)pyridin-2-yl)ethyl)-5-(4-(trifluoromethyl)phenoxy)-2-naphthamide], the half-maximal inhibitory concentration (IC50) was under 100 nM. With `C[C@H](NC(=O)c1ccc2c(Oc3ccc(C(F)(F)F)cc3)cccc2c1)c1cccnc1N` [Compound 78, (S)—N-(1-(2-aminopyridin-3-yl)ethyl)-5-(4-(trifluoromethyl)phenoxy)-2-naphthamide], the 50% inhibitory concentration (IC50) was under 100 nM. With `C[C@@H](NC(=O)c1ccc2c(Oc3ccc(C(F)(F)F)cc3)cccc2c1)c1cccnc1N` [Compound 79, (R)—N-(1-(2-aminopyridin-3-yl)ethyl)-5-(4-(trifluoromethyl)phenoxy)-2-naphthamide] the figure was 1000 to 3000 nM; with `O=C(NC(CO)Cc1ccccn1)c1ccc2c(Oc3ccc(C(F)(F)F)cc3)cccc2c1` (centres unmarked) [Compound 80, N-[1-(hydroxymethyl)-2-(2-pyridyl)ethyl]-5-[4-(trifluoromethyl)phenoxy]naphthalene-2-carboxamide], under 100 nM. Then `CC(C)NC(=O)c1cnc2c(Oc3ccc(C(F)(F)F)cc3)cc(F)c(F)c2c1` [Compound 81, 5,6-difluoro-N-isopropyl-8-(4-(trifluoromethyl)phenoxy)quinoline-3-carboxamide], with under 100 nM; and `C[C@H](NC(=O)c1ccc2c(Oc3ccc(C(F)(F)F)cc3)cccc2c1)c1ccccc1Cl` [Compound 83, (S)—N-(1-(2-chlorophenyl)ethyl)-5-(4-(trifluoromethyl)phenoxy)-2-naphthamide], with under 100 nM. As to `CC(C)NC(=O)c1ccc2c(Oc3ccc(C(F)(F)F)cc3F)cccc2c1` [Compound 84, 5-(2-fluoro-4-(trifluoromethyl)phenoxy)-N-isopropyl-2-naphthamide], the half-maximal inhibitory concentration (IC50) was under 100 nM. Consider `CC(C)NC(=O)c1ccc2c(Oc3ccc(C(F)(F)F)cc3Cl)cccc2c1` [Compound 85, 5-(2-chloro-4-(trifluoromethyl)phenoxy)-N-isopropyl-2-naphthamide], for which the concentration for half-maximal inhibition (IC50) is under 100 nM. As for `N#CNC(=O)c1ccc2c(Oc3ccc(C(F)(F)F)cc3)cccc2c1` [Compound 86, N-cyano-5-[4-(trifluoromethyl)phenoxy]naphthalene-2-carboxamide], the concentration for half-maximal inhibition (IC50) lay within 100 to 1000 nM. Then `C[C@@H](NC(=O)c1ccc2c(Oc3ccc(C(F)(F)F)cc3)cccc2c1)c1cccc2cn[nH]c12` [Compound 87, N-[(1R)-1-(1H-indazol-7-yl)ethyl]-5-[4-(trifluoromethyl)phenoxy]naphthalene-2-carboxamide], with under 100 nM; and `CC#C[C@H](C)NC(=O)c1ccc2c(Oc3ccc(C(F)(F)F)cc3)cccc2c1` [Compound 89, N-[(1S)-1-methylbut-2-ynyl]-5-[4-(trifluoromethyl)phenoxy]naphthalene-2-carboxamide], with under 100 nM; and `CC#C[C@@H](C)NC(=O)c1ccc2c(Oc3ccc(C(F)(F)F)cc3)cccc2c1` [Compound 90, N-[(1R)-1-methylbut-2-ynyl]-5-[4-(trifluoromethyl)phenoxy]naphthalene-2-carboxamide], with under 100 nM. Regarding `C[C@@H](NC(=O)c1ccc2c(Oc3ccc(C(F)(F)F)cc3)cccc2c1)c1cn(C)cn1` [Compound 91, N-[(1R)-1-(1-methylimidazol-4-yl)ethyl]-5-[4-(trifluoromethyl)phenoxy]naphthalene-2-carboxamide], the IC50 was under 100 nM. With `C[C@H](NC(=O)c1ccc2c(Oc3ccc(C(F)(F)F)cc3)cccc2c1)c1cn(C)cn1` [Compound 92, N-[(1S)-1-(1-methylimidazol-4-yl)ethyl]-5-[4-(trifluoromethyl)phenoxy]naphthalene-2-carboxamide] the figure was 100 to 1000 nM. Take `CC(C)NC(=O)c1ccc2c(Oc3ccc(C(F)(F)F)cc3)cncc2c1` [Compound 93, N-isopropyl-4-(4-(trifluoromethyl)phenoxy)isoquinoline-7-carboxamide]: the concentration for half-maximal inhibition (IC50) was under 100 nM. Then `O=C(NC(CCO)c1ccccn1)c1ccc2c(Oc3ccc(C(F)(F)F)cc3)cccc2c1` (centres unmarked) [Compound 94, N-(3-hydroxy-1-(pyridin-2-yl)propyl)-5-(4-(trifluoromethyl)phenoxy)-2-naphthamide], with under 100 nM; and `C[C@H](NC(=O)c1ccc2c(Oc3ccc(C(F)(F)F)cc3)cccc2c1)C1CNC1` [Compound 95, N-[(1S)-1-(azetidin-3-yl)ethyl]-5-[4-(trifluoromethyl)phenoxy]naphthalene-2-carboxamide], with under 100 nM; and `C[C@@H](NC(=O)c1ccc2c(Oc3ccc(C(F)(F)F)cc3)cccc2c1)C1CNC1` [Compound 96, N-[(1R)-1-(azetidin-3-yl)ethyl]-5-[4-(trifluoromethyl)phenoxy]naphthalene-2-carboxamide], with under 100 nM.

For `C[C@H](NC(=O)c1cc2cccc(Oc3ccc(C(F)(F)F)cc3)c2s1)c1ccccn1` [Compound 97, (S)—N-(1-(pyridin-2-yl)ethyl)-7-(4-(trifluoromethyl)phenoxy)benzothiophene-2-carboxamide], the 50% inhibitory concentration (IC50) is under 100 nM. On to `C[C@@H](NC(=O)c1ccc2c(Oc3ccc(C(F)(F)F)cc3)cccc2c1)c1cccc2ccc(=O)[nH]c12` [Compound 98, N-[(1R)-1-(2-oxo-1H-quinolin-8-yl)ethyl]-5-[4-(trifluoromethyl)phenoxy]naphthalene-2-carboxamide], for which the IC50 is under 100 nM.

Consider `CC(=O)N1CC([C@H](C)NC(=O)c2ccc3c(Oc4ccc(C(F)(F)F)cc4)cccc3c2)C1` [Compound 100, (S)—N-(1-(1-acetylazetidin-3-yl)ethyl)-5-(4-(trifluoromethyl)phenoxy)-2-naphthamide], for which the IC50 was 100 to 1000 nM.

As for `CC(=O)N1CC([C@@H](C)NC(=O)c2ccc3c(Oc4ccc(C(F)(F)F)cc4)cccc3c2)C1` [Compound 101, (R)—N-(1-(1-acetylazetidin-3-yl)ethyl)-5-(4-(trifluoromethyl)phenoxy)-2-naphthamide], the IC50 fell in the range of 100 to 1000 nM. As to `C[C@H](CO)NC(=O)c1cnc2c(Oc3ccc(C(F)(F)F)cc3)cc(F)c(F)c2c1` [Compound 102, (R)-5,6-difluoro-N-(1-hydroxypropan-2-yl)-8-(4-(trifluoromethyl)phenoxy)quinoline-3-carboxamide], the concentration for half-maximal inhibition (IC50) was under 100 nM. Regarding `C[C@@H](NC(=O)c1cnc2c(Oc3ccc(C(F)(F)F)cc3)cccc2c1)c1cccc2nc[nH]c12` [Compound 103, (R)—N-(1-(1H-benzo[d]imidazol-7-yl)ethyl)-8-(4-(trifluoromethyl)phenoxy)quinoline-3-carboxamide], the concentration for half-maximal inhibition (IC50) lay within 100 to 1000 nM.

Consider `C[C@H](NC(=O)c1cnc2c(Oc3ccc(C(F)(F)F)cc3)cccc2c1)c1cccc2nc[nH]c12` [Compound 104, (S)—N-(1-(1H-benzo[d]imidazol-7-yl)ethyl)-8-(4-(trifluoromethyl)phenoxy)quinoline-3-carboxamide], for which the 50% inhibitory concentration (IC50) was under 100 nM.

In the case of `C[C@@H](NC(=O)c1cnc2c(Oc3ccc(C(F)(F)F)cc3)cccc2c1)c1cccc2ccsc12` [Compound 105, (R)—N-(1-(benzo[b]thiophen-7-yl)ethyl)-8-(4-(trifluoromethyl)phenoxy)quinoline-3-carboxamide], the IC50 fell in the range of 100 to 1000 nM.

The record behind these values is US11420935B2, “Bicyclic compounds” (Vivace Therapeutics, Inc., priority 2019, dated 2022).
